Laboratory results: paper PMC12741935 (Alzheimer's & Dementia, 2025)

Tested on: brain proteome
Test: Brain proteomics (DIA LC-MS/MS) after chronic NVS-PAK1-1 100 mg/kg BID PO vs vehicle in 5xFAD mice
Type: in vivo
Details: for NES (gene set enrichment), NVS-PAK1-1 vs vehicle: Young Female
Method: A total of 91 brain samples were prepared from mice in this study and analyzed by mass spectrometry proteomics. One third of the mixed‐chopped left hemisphere tissue was homogenized in 8 M urea lysis buffer (8 M urea, 10 mM Tris, 100 mM NaH2PO4, pH 8.5) with HALT protease and phosphatase inhibitor cocktail (Thermo Fisher) and sonicated for three cycles consisting of 5 seconds of active sonication at 30% amplitude, followed by 15 seconds on ice. Samples were then centrifuged for 5 minutes at 15,000 g and the supernatant was transferred to a new tube. Protein concentration was determined by bicinchoninic acid (BCA) assay (Pierce). For protein digestion, 200 µg of each sample was aliquoted and volumes normalized with additional lysis buffer. Samples were reduced with 5 mM DTT at room temperature for 30 minutes, followed by 10 mM iodoacetamide (IAA) alkylation in the dark for another 30 minutes. Lysyl endopeptidase (Wako) at 1:25 (w/w) was added, and digestion allowed to proceed overnight. Samples were then 7‐fold diluted with 50 mM ammonium bicarbonate. Trypsin (Promega) was then added at 1:25 (w/w) and digestion proceeded overnight. The peptide solutions were acidified to a final concentration of 1% (vol/vol) FA and 0.1% (vol/vol) TFA and desalted with a 10 mg HLB column (Oasis). Each HLB column was first rinsed with 1 mL of methanol, washed with 1 mL 50% (vol/vol) acetonitrile (ACN), and equilibrated with 2 × 1 mL 0.1% (vol/vol) TFA. The samples were then loaded onto the column and washed with 2 × 1 mL 0.1% (vol/vol) TFA. Elution was performed with 0.5 mL 50% (vol/vol) ACN. Samples were split into 50 µL and 400 µL aliquots. Residuals from all samples were combined to create a global internal standard pool.
Samples were resuspended in an equal volume of loading buffer (0.1% FA, 0.03% TFA, 1% ACN) and analyzed by LC‐MS/MS. Peptide eluents (1 µg) were separated on a Water's CSH (15 cm × 150 µM internal diameter [ID] with 1.7 µm CSH resin) by a Dionex Ultimate 3000 RSLCnano (Thermo Fisher). Buffer A was water with 0.1% (vol/vol) formic acid, and buffer B was 80% (vol/vol) acetonitrile in water with 0.1% (vol/vol) FA. Elution was performed over a 30 minute gradient. The gradient was from 1% to 99% solvent B. Peptides were monitored on an Orbitrap Fusion Lumos mass spectrometer (Thermo Fisher). Each cycle consisted of one full scan (MS1) performed with an m/z range of 380 to 985 at a 60,000 resolution at standard settings and 30 data independent scans (DIA) in 1.5 seconds. The higher energy collision‐induced dissociation (HCD) tandem scans were collected at 30% collision energy with an isolation of 10 m/z, a resolution of 15,000, an AGC setting of 200% normalized AGC target, and a maximum injection time set to 40 ms.
Raw data files were converted to mzML format for downstream processing using ThermoRawFilerParser v.1.4.4.[30] The data were processed using Data‐Independent Acquisition by Neural Network (DIA‐NN) v.1.9.1.[31] A spectral library was generated using all canonical mouse proteins from UniProt and SwissProt (accessed September 24, 2024) and contaminants from the Common Repository of Adventitious Proteins (cRAP) database [https://www.thegpm.org/crap/]; these contaminant proteins were excluded from normalization and downstream analysis. DIA‐NN was run using parameters specified as follows: precursor charge was set from 1 to 4 and precursor m/z was set from 200 to 5000. Enzyme digestion was set to strict trypsin with 1 allowed missed cleavage, peptide length was set from 7 to 50, and peptide m/z was set from 150 to 3000. The maximum number of variable modifications was set to 3 and methionine oxidation was allowed as a variable modification. Cysteine carbamidomethylation was allowed as a fixed modification. MS1 and MS2 mass accuracy (in ppm) were set using autodetect and the scan window was set using autodetect. The false discovery rate (FDR) threshold was set to 1%. […]

CC(C)NC(=O)N1CC[C@H](NC2=Nc3cc(F)ccc3N(CC(F)F)c3ccc(Cl)cc32)C1 [NVS‐PAK1‐1, (S)‐3‐([2‐chloro‐5‐(2,2‐difluoroethyl)‐8‐fluoro‐5H‐dibenzo[b,e][1,4]diazepin‐11‐yl]amino)‐N‐isopropylpyrrolidine‐1‐carboxamide]
logFC, FAD5X_A_tx vs FAD5X_B_veh (ATP8, Aged M 5xFAD brain): -0.1292 | logFC_NVS.PAK1.1_vs_vehicle (Acat2, Young F 5xFAD brain): -0.07095 | logFC_NVS.PAK1.1_vs_vehicle (Acly, Young F 5xFAD brain): -0.0659 | logFC_NVS.PAK1.1_vs_vehicle (Acly, Young M 5xFAD brain): -0.07659 | logFC_NVS.PAK1.1_vs_vehicle (Agk, Young F 5xFAD brain): 0.08371 | logFC_NVS.PAK1.1_vs_vehicle (Agl, Young F 5xFAD brain): -0.0869 | logFC_NVS.PAK1.1_vs_vehicle (Aldh1l1, Young F 5xFAD brain): -0.1253 | logFC_NVS.PAK1.1_vs_vehicle (Anxa6, Young M 5xFAD brain): -0.118 | logFC_NVS.PAK1.1_vs_vehicle (App, Young F 5xFAD brain): -0.2576 | logFC_NVS.PAK1.1_vs_vehicle (Armcx5, Young M 5xFAD brain): 0.3268 | logFC_NVS.PAK1.1_vs_vehicle (Atl2, Aged F 5xFAD brain): -0.08745 | logFC_NVS.PAK1.1_vs_vehicle (Atp2b4, Young M 5xFAD brain): 0.1099 | logFC_NVS.PAK1.1_vs_vehicle (Atp5if1, Aged F 5xFAD brain): -0.5225 | logFC_NVS.PAK1.1_vs_vehicle (Calr, Young F 5xFAD brain): -0.07235 | logFC_NVS.PAK1.1_vs_vehicle (Cep170b, Young M 5xFAD brain): 0.1293 | logFC_NVS.PAK1.1_vs_vehicle (Cfap61, Young F 5xFAD brain): -0.4846 | logFC_NVS.PAK1.1_vs_vehicle (Cfl2, Young F 5xFAD brain): 0.1353 | logFC_NVS.PAK1.1_vs_vehicle (Chordc1, Young F 5xFAD brain): -0.1408 | logFC_NVS.PAK1.1_vs_vehicle (Ciapin1, Young M 5xFAD brain): -0.1789 | logFC_NVS.PAK1.1_vs_vehicle (Cops5, Aged M 5xFAD brain): 0.1116 | logFC_NVS.PAK1.1_vs_vehicle (Cox7a2, Aged F 5xFAD brain): -0.07809 | logFC_NVS.PAK1.1_vs_vehicle (Dctn3, Young F 5xFAD brain): -0.07573 | logFC_NVS.PAK1.1_vs_vehicle (Echdc1, Young F 5xFAD brain): -0.211 | logFC_NVS.PAK1.1_vs_vehicle (Eef1b, Young F 5xFAD brain): -0.1102 | logFC_NVS.PAK1.1_vs_vehicle (Eef2, Young F 5xFAD brain): -0.07944 | logFC_NVS.PAK1.1_vs_vehicle (Ehd3, Aged M 5xFAD brain): 0.04696 | logFC_NVS.PAK1.1_vs_vehicle (Eif1, Young F 5xFAD brain): -0.1062 | logFC_NVS.PAK1.1_vs_vehicle (Elfn2, Aged M 5xFAD brain): -0.27 | logFC_NVS.PAK1.1_vs_vehicle (Fasn, Young F 5xFAD brain): -0.08056 | logFC_NVS.PAK1.1_vs_vehicle (Fdps.1, Young F 5xFAD brain): -0.1222 | logFC_NVS.PAK1.1_vs_vehicle (Fn3krp, Aged M 5xFAD brain): 0.1203 | NES (gene set enrichment), NVS-PAK1-1 vs vehicle (GO:0005740 mitochondrial envelope): 2.24 | NES (gene set enrichment), NVS-PAK1-1 vs vehicle (GO:0005743 mitochondrial inner membrane): 2.303 | NES (gene set enrichment), NVS-PAK1-1 vs vehicle (GO:0019866 organelle inner membrane): 2.289 | NES (gene set enrichment), NVS-PAK1-1 vs vehicle (GO:0031966 mitochondrial membrane): 2.233 | logFC_NVS.PAK1.1_vs_vehicle (Gap43, Young F 5xFAD brain): 0.1885 | logFC_NVS.PAK1.1_vs_vehicle (Gnb1.1, Aged F 5xFAD brain): -0.6461 | logFC_NVS.PAK1.1_vs_vehicle (Gng2, Young M 5xFAD brain): 0.102 | logFC, FAD5X_A_tx vs FAD5X_B_veh (HC;Ighg2b, Aged M 5xFAD brain): 0.3576 | logFC_NVS.PAK1.1_vs_vehicle (Hnrnpf, Aged F 5xFAD brain): -0.0585 | logFC_NVS.PAK1.1_vs_vehicle (Hprt1, Young F 5xFAD brain): 0.09623 | logFC_NVS.PAK1.1_vs_vehicle (Hsp90ab1, Young F 5xFAD brain): -0.08556 | logFC_NVS.PAK1.1_vs_vehicle (Hsp90b1, Young F 5xFAD brain): -0.1385 | logFC_NVS.PAK1.1_vs_vehicle (Hspa8.1, Young F 5xFAD brain): -0.05148 | logFC_NVS.PAK1.1_vs_vehicle (Hsph1, Young F 5xFAD brain): -0.0893 | logFC_NVS.PAK1.1_vs_vehicle (Idh1, Young F 5xFAD brain): -0.08685 | logFC_NVS.PAK1.1_vs_vehicle (Idi1, Young F 5xFAD brain): -0.1582 | logFC_NVS.PAK1.1_vs_vehicle (Kctd16, Young M 5xFAD brain): 0.1263 | logFC_NVS.PAK1.1_vs_vehicle (Klc1, Young F 5xFAD brain): -0.06729 | logFC_NVS.PAK1.1_vs_vehicle (Lcmt1, Young F 5xFAD brain): -0.08416 | logFC_NVS.PAK1.1_vs_vehicle (Lcp1, Young F 5xFAD brain): -0.2692 | logFC_NVS.PAK1.1_vs_vehicle (Lrfn4, Aged F 5xFAD brain): 0.3404 | logFC_NVS.PAK1.1_vs_vehicle (Ly6h, Young M 5xFAD brain): 0.08528 | logFC_NVS.PAK1.1_vs_vehicle (Map1lc3a, Young M 5xFAD brain): 0.1055 | logFC_NVS.PAK1.1_vs_vehicle (Map7d2, Aged M 5xFAD brain): 0.1103 | logFC_NVS.PAK1.1_vs_vehicle (Mark4, Young F 5xFAD brain): 0.2384 | logFC_NVS.PAK1.1_vs_vehicle (Mib2, Aged M 5xFAD brain): -0.4263 | logFC_NVS.PAK1.1_vs_vehicle (Mipep, Aged F 5xFAD brain): 1.596 | logFC_NVS.PAK1.1_vs_vehicle (Myh10, Aged F 5xFAD brain): -1.404 | logFC_NVS.PAK1.1_vs_vehicle (Mylk, Aged M 5xFAD brain): -1.455 | logFC_NVS.PAK1.1_vs_vehicle (Nck2, Aged M 5xFAD brain): 0.1477 | logFC_NVS.PAK1.1_vs_vehicle (Nherf1, Young F 5xFAD brain): -0.1106 | logFC_NVS.PAK1.1_vs_vehicle (Nmd3, Young F 5xFAD brain): -0.95 | logFC_NVS.PAK1.1_vs_vehicle (Nmt1, Young F 5xFAD brain): -0.1011 | logFC_NVS.PAK1.1_vs_vehicle (Nomo1, Young F 5xFAD brain): -0.1733 | logFC_NVS.PAK1.1_vs_vehicle (Nrdc, Aged M 5xFAD brain): -0.1746 | logFC_NVS.PAK1.1_vs_vehicle (Ntm, Young M 5xFAD brain): 0.1007 | logFC_NVS.PAK1.1_vs_vehicle (Pkm, Aged M 5xFAD brain): -0.04674 | logFC_NVS.PAK1.1_vs_vehicle (Plpp3, Young F 5xFAD brain): -0.1143 | logFC_NVS.PAK1.1_vs_vehicle (Plxna4, Young F 5xFAD brain): 0.1065 | logFC_NVS.PAK1.1_vs_vehicle (Pnpo, Young F 5xFAD brain): 0.2 | logFC_NVS.PAK1.1_vs_vehicle (Ppp1r21, Young F 5xFAD brain): -0.1088 | logFC_NVS.PAK1.1_vs_vehicle (Ptgds, Young F 5xFAD brain): -0.128 | logFC_NVS.PAK1.1_vs_vehicle (RTRAF, Young F 5xFAD brain): -0.06356 | logFC_NVS.PAK1.1_vs_vehicle (Rab27b, Young F 5xFAD brain): 0.1779 | logFC_NVS.PAK1.1_vs_vehicle (Rab33a, Aged M 5xFAD brain): -0.2639 | logFC_NVS.PAK1.1_vs_vehicle (Rap2a, Young F 5xFAD brain): 0.09042 | logFC_NVS.PAK1.1_vs_vehicle (Rasgef1a, Aged M 5xFAD brain): 0.8766 | logFC_NVS.PAK1.1_vs_vehicle (Rbm4b, Aged M 5xFAD brain): -0.3664 | logFC_NVS.PAK1.1_vs_vehicle (Robo2, Young M 5xFAD brain): 0.2982 | logFC_NVS.PAK1.1_vs_vehicle (Rock2, Aged F 5xFAD brain): 0.0515 | logFC_NVS.PAK1.1_vs_vehicle (Rpl34, Young F 5xFAD brain): -0.09945 | logFC_NVS.PAK1.1_vs_vehicle (Rps3, Young F 5xFAD brain): -0.04356 | logFC_NVS.PAK1.1_vs_vehicle (S100a1, Young F 5xFAD brain): -0.119 | logFC_NVS.PAK1.1_vs_vehicle (Sec14l2, Young F 5xFAD brain): -0.1884 | logFC_NVS.PAK1.1_vs_vehicle (Senp3, Young M 5xFAD brain): -0.3344 | logFC_NVS.PAK1.1_vs_vehicle (Septin2, Young F 5xFAD brain): -0.1026 | logFC_NVS.PAK1.1_vs_vehicle (Septin3, Young F 5xFAD brain): 0.07371 | logFC_NVS.PAK1.1_vs_vehicle (Serpinb6, Young F 5xFAD brain): -0.1362 | logFC_NVS.PAK1.1_vs_vehicle (Sgip1, Young M 5xFAD brain): 0.06159 | logFC_NVS.PAK1.1_vs_vehicle (Snw1, Aged F 5xFAD brain): -0.2022 | logFC_NVS.PAK1.1_vs_vehicle (Spag9, Aged F 5xFAD brain): -0.08904 | logFC_NVS.PAK1.1_vs_vehicle (Stom, Aged F 5xFAD brain): -0.4369 | logFC_NVS.PAK1.1_vs_vehicle (Stom, Young M 5xFAD brain): -0.67 | logFC_NVS.PAK1.1_vs_vehicle (Stxbp5, Aged M 5xFAD brain): -0.08024 | logFC_NVS.PAK1.1_vs_vehicle (Syngr1, Young M 5xFAD brain): 0.07489 | logFC_NVS.PAK1.1_vs_vehicle (Sypl1, Aged M 5xFAD brain): 0.2577 | logFC_NVS.PAK1.1_vs_vehicle (Tbc1d24, Young F 5xFAD brain): 0.08048 | logFC_NVS.PAK1.1_vs_vehicle (Tkfc, Aged M 5xFAD brain): -0.1852 | logFC_NVS.PAK1.1_vs_vehicle (Tom1l2, Aged M 5xFAD brain): 0.07172 | logFC_NVS.PAK1.1_vs_vehicle (Txndc16, Young M 5xFAD brain): -1.405 | logFC_NVS.PAK1.1_vs_vehicle (Usp54, Aged M 5xFAD brain): 2.652 | logFC_NVS.PAK1.1_vs_vehicle (Vasp, Young F 5xFAD brain): 0.6308 | logFC_NVS.PAK1.1_vs_vehicle (Vps33b, Aged M 5xFAD brain): -0.1328 | logFC_NVS.PAK1.1_vs_vehicle (Wasf3, Young M 5xFAD brain): 0.12 | logFC_NVS.PAK1.1_vs_vehicle (Zfp967;Zfp968, Young F 5xFAD brain): -1.398
